Results from patent publication US20100247642A1, “STABLE PHARMACEUTICAL FORMULATION FOR A DPP-IV INHIBITOR” (Phenomix Corporation, priority 2007, published 2010).

Experiment: Excipient compatibility: stability of binary mixture of API plus excipient, purity by HPLC
Assay type: physicochemical
Description: A comparison of the stability of the API of the current invention was made, using excipients well-known in the art. […] Compound purity was determined by HPLC. The mixture of the API and the calcium phosphate was allowed to stand under the specified conditions for the stated times. Results are given as percent purity of the API at the given time point. […] Again, the mixture of the API and the microcrystalline cellulose was allowed to stand under the specified conditions for the stated times. Results are given as percent purity of the API at the given time point.

% API (percent purity of the API) (binary mixture with dibasic calcium phosphate, 2 weeks/loose cap): 77.0% | % API (percent purity of the API) (binary mixture with dibasic calcium phosphate, 2 weeks/tight cap): 77.2% | % API (percent purity of the API) (binary mixture with dibasic calcium phosphate, 4 weeks/tight cap): 71.7% | drop in API purity (binary mixture with dibasic calcium phosphate, within two weeks, regardless of exposure to atmosphere): over 10% | % API (percent purity of the API) (binary mixture with microcrystalline cellulose, 2 weeks/loose cap): 82.1% | % API (percent purity of the API) (binary mixture with microcrystalline cellulose, 4 weeks/tight cap): 90.2% | storage stability of the API in the presence of calcium phosphate (presence of calcium phosphate): massive decomposition
Compound: O=C(CNC1CCNC1)N1CCCC1B(O)O (stereo not shown) [API, pyrrolidin-3-yl-glycyl-boro-proline]
